Measurements published in patent publication US11530206B2, “Phenylaminopyrimidine amide autophagy inhibitors and methods of use thereof” (Deciphera Pharmaceuticals, LLC, priority 2019, dated 2022).

How the values were obtained:
[1] = molecular target: T1, ULK1 kinase (Homo sapiens, UniProt O75385, E37A/K38A); assay: Biochemical assay for ULK1.3 (coupled pyruvate kinase/lactate dehydrogenase assay, peptide substrate); settings: 0.1 nM ULK1 (residues 1-283), 1 mM ATP
T1 construct: purchased Beryllium
T1 sequence (O75385 1-283 E37A/K38A): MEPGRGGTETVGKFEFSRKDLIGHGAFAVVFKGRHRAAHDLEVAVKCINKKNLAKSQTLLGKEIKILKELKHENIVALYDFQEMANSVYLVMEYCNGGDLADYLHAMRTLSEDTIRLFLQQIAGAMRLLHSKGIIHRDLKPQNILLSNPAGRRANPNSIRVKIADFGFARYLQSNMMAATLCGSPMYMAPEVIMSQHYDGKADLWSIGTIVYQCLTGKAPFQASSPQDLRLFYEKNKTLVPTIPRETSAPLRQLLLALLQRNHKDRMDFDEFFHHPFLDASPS
Outline: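 ULK1.3 activity was followed by continuous decrease in 340 nm absorbance over 6 h at 30 °C with 1% DMSO final. Rates were taken from the 2–3 h window and converted to percent inhibition against no-compound and known-inhibitor controls. IC50 values came from curve fitting.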

[2] = test system: ULK kinase; assay: pATG13 levels of mutant KRas HCT-116 cells after treatment with ULK inhibitors in combination with trametinib (ELISA); type: cell-based, human; settings: HCT-116 colon cancer cells, 250 nM trametinib, overnight, pS318-ATG13
Method: The following day, 10 μL of media containing trametinib or DMSO as a control was added to wells. […] A dose response of a test compound (0.6 μL per well) was added. DMSO (0.6 μL) was added to control wells. The plate was briefly shaken to mix wells and then incubated at 37° C. overnight. The next day, the media was aspirated and cells were washed with Dulbecco's Phosphate Buffered Saline (Gibco). Cells were lysed using MPER lysis buffer (Pierce, Rockford, Ill.) containing Halt Phosphatase and Protease Inhibitors (Pierce, Rockford, Ill.) and Phosphatase inhibitor cocktail 2 (Sigma, St. Louis, Mo.) at 4° C. for 10 minutes with shaking.
(§1) Plate wells were washed with ELISA wash buffer. Cell lysate was added to wells and incubated at room temperature for 2 hours. Plate wells were washed with ELISA wash buffer. […] Plate wells were washed with ELISA wash buffer. […] Plate wells were washed with ELISA wash buffer. […] The reaction was stopped with 2N Sulfuric Acid. The plate was analyzed at on a plate reader measuring absorbance at 450 nm and 540 nm (background). Signal was calculated by first subtracting the background absorbance at 540 nm from the absorbance at 450 nm for each well. Next, the background corrected absorbance at 450 nm from blank wells was subtracted from test wells. Data was compared to control wells to determine % ATG13 phosphorylation. GraphPad Prism was used to calculate IC50 values.

[3] = test system: ULK kinase; assay: pATG13 levels of mutant BRAF A375 cells after treatment with ULK inhibitors in combination with trametinib (ELISA); type: cell-based, human; settings: A375 malignant melanoma cells (mutant BRAF), 250 nM trametinib, overnight, pS318-ATG13
Method: A375 human malignant melanoma cancer cells (20000 cells/well) were added to a 96-well tissue-culture treated plate in 100 μL of pre-warmed DMEM medium supplemented with 10% characterized fetal bovine serum (Invitrogen, Carlsbad, Calif.), 100 units/mL penicillin G, and 100 μg/mL streptomycin and allowed to grow overnight at 37° C., 5% CO2, and 95% humidity. The following day, 100 μL of media containing trametinib or DMSO as a control was added to wells. […] A dose response of a test compound (0.5 μL per well) was added. DMSO (0.5 μL) was added to control wells. The plate was briefly shaken to mix wells and then incubated at 37° C. overnight. The next day, the media was aspirated and cells were washed with Dulbecco's Phosphate Buffered Saline (Gibco). Cells were lysed using MPER lysis buffer (Pierce, Rockford, Ill.) containing Halt Phosphatase and Protease Inhibitors (Pierce, Rockford, Ill.) and Phosphatase inhibitor cocktail 2 (Sigma, St. Louis, Mo.) at 4° C. for 10 minutes with shaking.
as §1

[4] = molecular target: T2, ULK2 kinase (Homo sapiens, UniProt Q8IYT8); assay: Biochemical assay for ULK2 (coupled pyruvate kinase/lactate dehydrogenase assay); settings: 9.7 nM ULK2 (residues 1-306, GST and His tag), myelin basic protein, 1 mM ATP; read-out: ULK2.2
T2 construct: purchased Eurofins 14-772
Method: Example 132. Biochemical Assay for ULK2 (SEQ. ID NO: 3)
Activity of ULK2 kinase was determined spectroscopically using a coupled pyruvate kinase/lactate dehydrogenase assay that continuously monitors the ATP hydrolysis-dependent oxidation of NADH (e.g., Schindler et al. Science (2000) 289: 1938-1942). Assays were conducted in 384-well plates (100 uL final volume) using 9.7 nM ULK2 (Eurofins CAT #14-772), 0.25 mg/mL myelin basic protein, 1.5 units pyruvate kinase, 2.1 units lactate dehydrogenase, 1 mM phosphoenol pyruvate, 0.28 mM NADH and 1 mM ATP in assay buffer (100 mM Tris, pH 7.5, 15 mM MgCl2, 0.5 mM DTT, 0.1% octyl-glucoside, 0.002% (w/v) BSA, and 0.002% Triton X-100). Inhibition of ULK2 was measured by adding serial diluted test compound (final assay concentration of 1% DMSO). A decrease in absorption at 340 nm was monitored continuously for 6 hours at 30° C. on a multi-mode microplate reader (BioTek). The reaction rate was calculated using the 2-3 h time frame. The reaction rate at each concentration of compound was converted to percent inhibition using controls (i.e. reaction with no test compound and reaction with a known inhibitor) and IC50 values were calculated by fitting a four-parameter sigmoidal curve to the data using Prism (GraphPad software).

T2 sequence (Q8IYT8 with tags, fused parts or gaps): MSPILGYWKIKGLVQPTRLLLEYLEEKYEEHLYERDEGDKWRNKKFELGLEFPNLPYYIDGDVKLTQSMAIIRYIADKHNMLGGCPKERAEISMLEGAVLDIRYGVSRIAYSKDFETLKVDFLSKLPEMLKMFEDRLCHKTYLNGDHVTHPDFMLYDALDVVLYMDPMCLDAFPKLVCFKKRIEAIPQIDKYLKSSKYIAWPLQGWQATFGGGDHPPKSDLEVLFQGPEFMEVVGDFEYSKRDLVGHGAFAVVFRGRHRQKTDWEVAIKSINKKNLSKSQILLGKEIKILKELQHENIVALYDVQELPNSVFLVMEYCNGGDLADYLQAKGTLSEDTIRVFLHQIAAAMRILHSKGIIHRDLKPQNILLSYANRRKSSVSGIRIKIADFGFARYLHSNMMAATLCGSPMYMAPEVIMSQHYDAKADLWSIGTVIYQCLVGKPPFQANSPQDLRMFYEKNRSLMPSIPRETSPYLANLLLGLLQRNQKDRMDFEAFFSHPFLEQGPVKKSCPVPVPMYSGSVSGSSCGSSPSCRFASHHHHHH

Compound	IC50 [1] [nM]	IC50 [2] [nM]	IC50 [3] [nM]	IC50 [4] [nM]
CCc1cc(N2CCN(C)CC2)ccc1Nc1ncc(Br)c(NCCCN2CCOCCC2=O)n1 [Example 76]	1 to 25	10 to 100	–	–
CN1CCN(c2ccc(Nc3ncc(Cl)c(NCCCN4CCCOCC4=O)n3)c(C3CC3)c2)CC1 [Example 55]	–	10 to 100	100 to 300	100 to 500
CCc1cc(N2CCN(C)CC2)c(F)cc1Nc1ncc(C(F)(F)F)c(NCCCN2CCOCCC2=O)n1 [Example 86]	25 to 100	100 to 300	10 to 100	–
O=C1OCCCN1CCCNc1nc(Nc2ccc(N3CCNCC3)cc2C2CC2)ncc1C(F)(F)F [Example 99]	1 to 25	–	100 to 300	25 to 100
CN1CCN(c2ccc(Nc3ncc(C(F)(F)F)c(NCCCN4CCCCC4=O)n3)c(C3CC3)c2)CC1 [Example 14]	1 to 25	10 to 100	10 to 100	1 to 25
CN1CCN(c2ccc(Nc3ncc(C(F)(F)F)c(NCCCN4CCCOCC4=O)n3)c(C3CC3)c2)CC1 [Example 52]	1 to 25	10 to 100	100 to 300	25 to 100
CN1CCN(c2ccc(Nc3ncc(C(F)(F)F)c(NCCCN4CCCOC4=O)n3)c(C3CC3)c2)CC1 [Example 41]	1 to 25	10 to 100	10 to 100	25 to 100
CCc1cc(N2CCN(C)CC2)ccc1Nc1ncc(C(F)(F)F)c(NCCCN2CCCOC2=O)n1 [Example 39]	1 to 25	10 to 100	10 to 100	25 to 100
CCc1cc(N2CC3CCC(C2)N3C)ccc1Nc1ncc(C(F)(F)F)c(NCCCN2CCOCCC2=O)n1 [Example 74]	1 to 25	10 to 100	–	1 to 25
CN1CCN(c2ccc(Nc3ncc(C(F)(F)F)c(NCCCN4CCOCCC4=O)n3)c(C3CC3)c2)CC1 [Example 70]	1 to 25	10 to 100	10 to 100	25 to 100
CCc1cc(N2CCNCC2)ccc1Nc1ncc(C(F)(F)F)c(NCCCN2CCOCCC2=O)n1 [Example 84]	1 to 25	10 to 100	100 to 300	25 to 100
CCc1cc(N2CCNCC2)ccc1Nc1ncc(C(F)(F)F)c(NCCCN2CCCOC2=O)n1 [Example 46]	1 to 25	100 to 300	100 to 300	25 to 100
